# Source: US8183236B2, “Compounds with HIV-1 integrase inhibitory activity and use thereof as anti-HIV/AIDS therapeutics” (University of Southern California, priority 2007, dated 2012)
# Key:
# [1] = target: T1, HIV-1 integrase (wild-type IN) (Human immunodeficiency virus type 1 group M subtype B, UniProt P12497); experiment: HIV-1 integrase strand transfer assay (32P-labeled 21-mer, gel); format: biochemical
# Source text: (§1) The oligonucleotides 21 top, 5′-[…]-3′ (SEQ ID NO:1) and 21 bot, 5′-[…]-3′ (SEQ ID NO:2) were purchased from Norris Cancer Center Core Facility (University of Southern California) and purified by UV shadowing on polyacrylamide gel. To analyze the extent of 3′-processing and strand transfer using 5′-end labeled substrates, 21 top was 5′-end labeled using T4 polynucleotide kinase (Epicentre, Madison, Wis.) and γ [^32P]-ATP (Amersham Biosciences or ICN). The kinase was heat-inactivated and 21 bot was added in 1.5-molar excess. The mixture was heated at 95° C., allowed to cool slowly to room temperature, and run through a spin 25 mini-column (USA Scientific) to separate annealed double-stranded oligonucleotide from unincorporated material.
# (§2) To determine the extent of 3′-processing and strand transfer, wild-type IN was preincubated at a final concentration of 200 nM with the inhibitor in reaction buffer (50 mM NaCl, 1 mM HEPES, pH 7.5, 50 μM EDTA, 50 μM dithiothreitol, 10% glycerol (w/v), 7.5 mM MnCl2, 0.1 mg/ml bovine serum albumin, 10 mM 2-mercaptoethanol, 10% dimethyl sulfoxide, and 25 mM MOPS, pH 7.2) at 30° C. for 30 min. Then, 20 nM of the 5′-end ^32P-labeled linear oligonucleotide substrate was added, and incubation was continued for an additional one hour. Reactions were quenched by the addition of an equal volume (16 μl) of loading dye (98% deionized formamide, 10 mM EDTA, 0.025% xylene cyanol and 0.025% bromophenol blue). An aliquot (5 μl) was electrophoresed on a denaturing 20% polyacrylamide gel (0.09 M tris-borate pH 8.3, 2 mM EDTA, 20% acrylamide, 8M urea).
# (§3) Gels were dried, exposed in a PhosphorImager cassette, and analyzed using a Typhoon 8610 Variable Mode Imager (Amersham Biosciences) and quantitated using ImageQuant 5.2. Percent inhibition (% I) was calculated using the following equation: %I=100×[1−(D−C)/(N−C)]
# (§4) where C, N, and D are the fractions of 21-mer substrate converted to 19-mer (3′-processing product) or strand transfer products for DNA alone, DNA plus IN, and IN plus drug, respectively. The IC50 values were determined by plotting the logarithm of drug concentration versus percent inhibition to obtain concentration that produced 50% inhibition. […]
# [2] = target: T1, HIV-1 integrase (wild-type IN); experiment: HIV-1 integrase 3′-processing assay (32P-labeled 21-mer, gel); format: biochemical
# Source text: as §1, §2, §3, §4
# [3] = unit inferred, read-out: HIV-1 IN Inhibitory Activities Strand transfer
# [4] = unit inferred, read-out: HIV-1 IN Inhibitory Activities 3′-processing
# [5] = unit inferred, read-out: IN inhibition activity Strand transfer
# [6] = unit inferred, read-out: IN inhibition activity 3′-processing
# [7] = wild-type IN 200 nM, 7.5 mM MnCl2, read-out: Inhibition of IN Catalytic Activities IC50 (μM) Strand Transfer
# [8] = wild-type IN 200 nM, 7.5 mM MnCl2, read-out: Inhibition of IN Catalytic Activities IC50 (μM) 3′-processing
# [9] = Table 54, read-out: IN inhibition activity Strand transfer
# [10] = Table 54, read-out: IN inhibition activity 3′-processing
Compound,"IC50 [1, 3]","IC50 [2, 4]","IC50 [1, 7]","IC50 [2, 8]",also measured
COc1ccc2oc(=O)c(-c3csc(N/N=C/c4ccco4)n3)cc2c1 [Compound X144],29 µM,78 µM,,,
Cc1ccc(C(=O)C2=C(O)C(=O)N(CCCn3ccnc3)C2c2ccc(Cl)cc2)cc1 (stereo not drawn) [Compound X155],67 µM,93 µM,,,"IC50 [1, 5]: 67 ± 28 µM; IC50 [2, 6]: 93 ± 12 µM"
O=C(CCCN1C(=O)C(=Cc2cccs2)SC1=S)Nc1ccc(O)c(C(=O)O)c1 [Compound X169],,,35 ± 16 µM,44 ± 20 µM,
CCc1ccc(C=C2SC(=S)N(CCC(=O)Nc3ccc(O)c(C(=O)O)c3)C2=O)cc1 [Compound X170],,,11 ± 5 µM,15 ± 3 µM,
COc1cc(C=C2SC(=S)N(CC(=O)Nc3cc(Cl)ccc3O)C2=O)cc(OC)c1OC [Compound X171],,,17 ± 2 µM,32 ± 11 µM,
O=C(CCN1C(=O)C(=Cc2cccs2)SC1=S)Nc1ccc(O)c(C(=O)O)c1 [Compound X172],,,38 ± 16 µM,38 ± 16 µM,
COc1cc(C=C2SC(=S)N(CCC(=O)Nc3ccc(C(=O)O)cc3)C2=O)cc(OC)c1OC [Compound X173],,,85 ± 15 µM,97 ± 6 µM,
O=C(CCN1C(=O)/C(=C/c2cccs2)SC1=S)Nc1ccc2ccccc2c1 [Compound X174],,,> 100 µM,> 100 µM,
O=C(CCN1C(=O)C(=Cc2cccs2)SC1=S)Nc1cccc(O)c1 [Compound X177],,,> 100 µM,> 100 µM,
CC(=Cc1ccccc1)C=C1SC(=S)N(CCC(=O)Nc2ccc(O)c(C(=O)O)c2)C1=O [Compound X185],,,23 ± 3 µM,36 ± 23 µM,
O=C(CCN1C(=O)/C(=C/c2ccc3c(c2)OCO3)SC1=S)Nc1ccc2c(c1)OCO2 [Compound X187],,,93 ± 12 µM,97 ± 6 µM,
O=C(CCN1C(=O)C(=Cc2ccc3c(c2)OCO3)SC1=S)Nc1ccc(C(=O)O)c(O)c1 [Compound X188],,,23 ± 13 µM,33 ± 23 µM,
Cc1ccc(C=C2SC(=S)N(CC(=O)Nc3cc([N+](=O)[O-])ccc3O)C2=O)cc1 [Compound X191],,,80 ± 18 µM,84 ± 24 µM,
COc1ccc(C=C2SC(=S)N(CCC(=O)Nc3ccc(C(=O)O)c(O)c3)C2=O)cc1OC [Compound X192],,,17 ± 4 µM,61 ± 34 µM,
O=C(CN1C(=O)C(=Cc2ccccc2Cl)SC1=S)Nc1ccc([N+](=O)[O-])cc1O [Compound X193],,,> 100 µM,> 100 µM,
O=C(CN1C(=O)C(=Cc2ccccc2Cl)SC1=S)Nc1cc([N+](=O)[O-])ccc1O [Compound X194],,,18 ± 11 µM,20 ± 7 µM,
Cc1ccc(C=C2SC(=S)N(CC(=O)Nc3ccc([N+](=O)[O-])cc3O)C2=O)cc1 [Compound X195],,,> 100 µM,> 100 µM,
O=C(NC(=S)Nc1ccc(O)c(C(=O)O)c1)c1ccccc1 [Compound X199],,,> 100 µM,> 100 µM,
O=C(CCN1C(=O)/C(=C/c2ccccc2Cl)SC1=S)Nc1ccc([N+](=O)[O-])cc1 [Compound X200],,,> 100 µM,> 100 µM,
O=C1/C(=C/c2ccc(O)cc2O)SC(=S)N1c1ccccc1 [Compound X221],,,> 100 µM,> 100 µM,
CCOc1cc(/C=C2\SC(=S)N(NC(=O)c3ccccc3O)C2=O)ccc1O [Compound X223],,,38 ± 14 µM,70 ± 27 µM,
CC(C)Cn1c(=O)c(C(=O)Nc2ccccc2S(N)(=O)=O)c(O)c2ccccc21 [Compound X228],,,16 µM,40 µM,
O=C(N/N=C1/C(=O)Nc2ccc(F)cc21)/C(=C/C=C/c1ccccc1)NC(=O)c1ccccc1 [Compound X231],38 µM,60 µM,,,
O=C(N/N=C/c1cc(Br)ccc1O)/C(=C/C=C/c1ccccc1)NC(=O)c1ccccc1 [Compound X234],23 µM,90 µM,,,
O=C(CSc1nc2ccccc2n1Cc1ccccc1)N/N=C/c1cc(Br)ccc1O [Compound X244],,,,,"IC50 [1, 5]: 51 ± 3 µM; IC50 [2, 6]: 60 ± 11 µM"

Compound,"IC50 [1, 3]","IC50 [2, 4]","IC50 [1, 7]","IC50 [2, 8]",also measured
O=C(Nc1ccc(O)c(-c2nc3cc(Cl)ccc3o2)c1)c1cccnc1 [Compound X255],10 µM,61 µM,,,
O=C(COc1ccccc1[N+](=O)[O-])Nc1ccc(O)c(-c2nc3ccccc3s2)c1 [Compound X257],80 µM,99 µM,,,
CCOC(=O)c1c(-c2ccccc2)csc1NC(NC(=O)c1ccco1)C(=O)c1ccc(C)cc1 (stereo not drawn) [Example X88],79 µM,> 100 µM,,,
O=C(N/N=C1\C(=O)Nc2ccc(Br)cc21)/C(O)=C/C(=O)c1ccc(Cl)cc1 [Example X115],28 µM,42 µM,,,
COc1ccc(CCNC(=O)CC(=O)N/N=C/c2ccco2)cc1OC [Example X134],90 µM,> 100 µM,,,
O=C(Nc1ccccc1C(=O)O)c1cccc(S(=O)(=O)Nc2cccc([N+](=O)[O-])c2)c1 [Example X148],90 µM,89 µM,,,
O=C(/C=C/c1ccc(Cl)cc1)Nc1ccc(NC(=O)c2ccco2)cc1 [Example X159],91 µM,90 µM,,,
O=C(c1ccccc1)c1cc(Br)ccc1NC(=O)c1nc[nH]c1C(=O)O [Example X160],17 µM,16 µM,,,
O=C(O)C(Cc1c[nH]c2ccccc12)NS(=O)(=O)c1ccccc1[N+](=O)[O-] (stereo not drawn) [Example X182],56 µM,88 µM,,,
O=C(/C=C/c1ccco1)NC(=S)Nc1ccccc1O [Example X205],28 µM,57 µM,,,
Oc1ccccc1/C=N/CC(O)C/N=C/c1ccccc1O [Example X208],61 µM,97 µM,,,
O=C(N/N=C/c1ccc(/C=N/NC(=O)c2cc(O)cc(O)c2)cc1)c1cc(O)cc(O)c1 [Example X218],56 µM,76 µM,,,
Cc1c(C(c2ccc(O)c(O)c2)c2c(C)n(C)n(-c3ccccc3)c2=O)c(=O)n(-c2ccccc2)n1C [Example X219],31 µM,89 µM,,,
O=C(CSc1nc(CSc2ccc(Cl)cc2)cc(=O)[nH]1)Nc1ccc(Cl)cc1Cl [Example X272],24 µM,34 µM,,,
COc1cc(/C=N/NC2=NC(=O)C(CC(=O)Nc3ccc(Cl)c(Cl)c3)S2)ccc1O (stereo not drawn) [Example X278],38 µM,89 µM,,,
COc1ccc(N(CC(=O)N/N=C/c2c(O)ccc3ccccc23)S(C)(=O)=O)cc1Cl [Example X279],59 µM,95 µM,,,
Cc1ccc(C(=O)N/C(=C/c2ccc(-c3ccc(Cl)cc3Cl)o2)C(=O)NCCCO)cc1 [Example X280],85 µM,> 1000 µM,,,
N#Cc1c(-c2ccc(Cl)cc2)cc(-c2ccccc2)nc1SCC(=O)O [GLD2A2],,,,,"IC50 [1, 5]: 60 ± 12 µM; IC50 [2, 6]: 98 ± 10 µM"
Nc1cc(N)nc(SCC(=O)O)n1 [GLD2A3],,,,,"IC50 [1, 5]: > 100 µM; IC50 [2, 6]: > 100 µM"
O=C(O)CSc1nc(-c2ccccc2)cc(C(F)(F)F)n1 [GLD2A4],,,,,"IC50 [1, 5]: > 100 µM; IC50 [2, 6]: > 100 µM"
O=C(O)CSc1nc(-c2cccs2)cc(C(F)(F)F)n1 [GLD2A10],,,,,"IC50 [1, 5]: > 100 µM; IC50 [2, 6]: > 100 µM"
O=C(O)CSc1nc(Nc2ccccc2)nc(N2CCOCC2)n1 [GLD2A18],,,,,"IC50 [1, 5]: > 100 µM; IC50 [2, 6]: > 100 µM"
O=C(O)CSc1nnc(-c2ccco2)c(-c2ccco2)n1 [GLD2],,,,,"IC50 [1, 5]: 5 ± 3 µM; IC50 [2, 6]: 18 ± 4 µM"
CCOc1cc(N(CC)CC)ccc1/C=C1\C(=O)N(c2nnn[nH]2)N=C1C [GLD12A1],,,,,"IC50 [1, 9]: 65 ± 8 µM; IC50 [2, 10]: 61 ± 8 µM"
COc1cc(/C=C2\C(=O)N(c3nnn[nH]3)N=C2C)cc(Cl)c1OC [GLD12A2],,,,,"IC50 [1, 9]: 4 ± 2 µM; IC50 [2, 10]: 5 ± 2 µM"
